Among the data in patent publication US20230167114A1, “MACROCYCLIC JAK INHIBITOR AND USE THEREOF” (Biopolar Hongye (Guangdong) Pharmaceutical Co., Ltd., priority 2020, published 2023) are IC50 values, retold here.

Type in all cases: biochemical
The target of one assay is JAK1 (Homo sapiens, UniProt P23458). The experiment in a line: JAK kinase activity, homogeneous time-resolved fluorescence (JAK1 reaction system). The settings on record: ATP 2 μM, JAK1 protein 0.2 ng/μL; read-out: JAK 1 activity. In short, it runs like this:
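HTRF readout (665/615 nm ratio) with 0.2 ng/μL JAK1 and 2 μM ATP in 50 mM Hepes pH 7.0, 5 mM MgCl2, 1 mM DTT and 0.01% BSA. The reaction ran 1 h, then anti-phosphosubstrate antibody and EDTA were added. IC50 came from a Hill-slope logistic fit.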

The next assay deals with T1, JAK3 (Homo sapiens, UniProt P52333).
T1 sequence (P52333 1-1124): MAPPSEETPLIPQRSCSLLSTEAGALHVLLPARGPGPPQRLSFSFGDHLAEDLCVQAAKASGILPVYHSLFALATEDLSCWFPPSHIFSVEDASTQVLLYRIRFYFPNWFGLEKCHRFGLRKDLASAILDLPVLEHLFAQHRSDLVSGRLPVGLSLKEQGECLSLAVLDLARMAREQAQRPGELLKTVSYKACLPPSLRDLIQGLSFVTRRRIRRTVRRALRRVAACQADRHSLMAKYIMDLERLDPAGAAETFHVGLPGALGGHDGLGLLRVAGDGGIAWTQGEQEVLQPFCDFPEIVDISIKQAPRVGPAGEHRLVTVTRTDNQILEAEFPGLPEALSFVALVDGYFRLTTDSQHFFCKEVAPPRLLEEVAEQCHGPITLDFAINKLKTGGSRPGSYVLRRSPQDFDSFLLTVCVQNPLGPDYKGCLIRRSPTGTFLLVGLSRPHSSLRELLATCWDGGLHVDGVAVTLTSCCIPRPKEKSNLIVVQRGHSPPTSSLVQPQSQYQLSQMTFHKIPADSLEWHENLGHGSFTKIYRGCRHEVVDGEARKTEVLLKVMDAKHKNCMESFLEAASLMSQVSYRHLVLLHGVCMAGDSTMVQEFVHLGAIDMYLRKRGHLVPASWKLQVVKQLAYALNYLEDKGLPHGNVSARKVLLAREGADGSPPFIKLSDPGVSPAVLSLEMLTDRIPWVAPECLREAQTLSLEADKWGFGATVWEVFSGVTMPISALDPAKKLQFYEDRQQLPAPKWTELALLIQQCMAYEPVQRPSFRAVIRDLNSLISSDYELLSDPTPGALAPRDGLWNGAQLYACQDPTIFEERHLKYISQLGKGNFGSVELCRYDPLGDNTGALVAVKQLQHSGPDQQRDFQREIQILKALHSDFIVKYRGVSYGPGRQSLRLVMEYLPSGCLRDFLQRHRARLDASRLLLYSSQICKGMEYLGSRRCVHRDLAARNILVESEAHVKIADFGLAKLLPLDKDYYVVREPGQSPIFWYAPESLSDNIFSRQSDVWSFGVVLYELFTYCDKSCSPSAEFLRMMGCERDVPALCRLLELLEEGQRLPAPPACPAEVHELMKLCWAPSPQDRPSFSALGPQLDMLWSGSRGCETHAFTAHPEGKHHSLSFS
The experiment in a line: JAK kinase activity, homogeneous time-resolved fluorescence (JAK3 reaction system). The settings on record: ATP 2 μM, JAK3 protein 0.04 ng/μL; read-out: JAK 3 activity. In short, it runs like this: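 JAK3 (0.04 ng/μL) was reacted 1 h with substrate, 2 μM ATP and compound in 50 mM Hepes pH 7.0, 5 mM MgCl2, 1 mM DTT, 0.01% BSA. Phospho-specific antibody and XL-615 with EDTA were added, and the 665/615 nm ratio was referenced to no-enzyme and no-compound wells. IC50 came from a Hill-equation fit.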

A further assay has as its target JAK2 (Homo sapiens, UniProt O60674). The experiment in a line: JAK kinase activity, homogeneous time-resolved fluorescence (JAK2 reaction system). The settings on record: ATP 2 μM, JAK2 protein 0.01 ng/μL. In short, it runs like this: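 HTRF reaction with 0.01 ng/µL JAK2 and 2 µM ATP, run 1 h in 50 mM HEPES pH 7.0, 5 mM MgCl2, 1 mM DTT, 0.01% BSA. It was stopped with EDTA detection buffer containing anti-phosphosubstrate antibody and XL-615. The 665/615 ratio was read against no-enzyme and no-compound wells, with IC50 from a Hill-slope fit.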

The next assay has as its target TYK2 (Homo sapiens, UniProt P29597). Put plainly: JAK kinase activity, homogeneous time-resolved fluorescence (TYK2 reaction system). The settings on record: ATP 2 μM, TYK2 protein 0.2 ng/μL; read-out: TYK 2 activity. The method in brief: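 Homogeneous time-resolved fluorescence kinase assay with 0.2 ng/μL TYK2 and 2 μM ATP in 50 mM Hepes pH 7.0, 5 mM MgCl2, 1 mM DTT and 0.01% BSA, reacted for 1 h. Phospho-substrate antibody with EDTA-containing detection buffer was added, and the 665/615 nm emission ratio was read. IC50 came from a Hill-slope logistic fit.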

JAK2, sequence (O60674 whole entry): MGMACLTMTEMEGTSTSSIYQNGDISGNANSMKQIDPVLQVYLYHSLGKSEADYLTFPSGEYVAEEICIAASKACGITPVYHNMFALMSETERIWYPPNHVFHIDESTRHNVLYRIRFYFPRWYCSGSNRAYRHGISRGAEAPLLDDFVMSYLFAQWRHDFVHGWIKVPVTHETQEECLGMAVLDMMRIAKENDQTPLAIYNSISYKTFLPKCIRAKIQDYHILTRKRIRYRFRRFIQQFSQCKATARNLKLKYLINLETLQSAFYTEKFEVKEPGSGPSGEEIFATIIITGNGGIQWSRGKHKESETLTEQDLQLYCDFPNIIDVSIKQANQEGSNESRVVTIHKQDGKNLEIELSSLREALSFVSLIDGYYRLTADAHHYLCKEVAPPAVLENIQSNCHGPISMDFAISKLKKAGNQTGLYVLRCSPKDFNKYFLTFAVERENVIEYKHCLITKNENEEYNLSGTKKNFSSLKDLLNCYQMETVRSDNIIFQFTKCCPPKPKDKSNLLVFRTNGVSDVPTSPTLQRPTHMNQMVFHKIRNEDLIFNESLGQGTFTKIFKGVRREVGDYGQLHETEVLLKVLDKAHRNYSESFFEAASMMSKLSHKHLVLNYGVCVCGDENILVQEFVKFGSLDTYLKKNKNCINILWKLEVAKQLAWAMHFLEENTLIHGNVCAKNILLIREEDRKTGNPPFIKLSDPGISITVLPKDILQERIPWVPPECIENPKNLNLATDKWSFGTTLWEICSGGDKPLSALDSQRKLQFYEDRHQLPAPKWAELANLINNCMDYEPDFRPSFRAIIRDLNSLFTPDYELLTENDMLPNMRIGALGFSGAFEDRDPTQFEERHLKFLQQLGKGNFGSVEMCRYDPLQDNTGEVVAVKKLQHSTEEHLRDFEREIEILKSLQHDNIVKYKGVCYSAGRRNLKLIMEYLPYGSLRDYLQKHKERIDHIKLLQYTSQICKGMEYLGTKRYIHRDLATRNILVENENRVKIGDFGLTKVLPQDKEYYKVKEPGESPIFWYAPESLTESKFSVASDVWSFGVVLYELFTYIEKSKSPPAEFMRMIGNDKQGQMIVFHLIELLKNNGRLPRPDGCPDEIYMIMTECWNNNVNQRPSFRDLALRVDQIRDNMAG
JAK1, sequence (P23458 whole entry): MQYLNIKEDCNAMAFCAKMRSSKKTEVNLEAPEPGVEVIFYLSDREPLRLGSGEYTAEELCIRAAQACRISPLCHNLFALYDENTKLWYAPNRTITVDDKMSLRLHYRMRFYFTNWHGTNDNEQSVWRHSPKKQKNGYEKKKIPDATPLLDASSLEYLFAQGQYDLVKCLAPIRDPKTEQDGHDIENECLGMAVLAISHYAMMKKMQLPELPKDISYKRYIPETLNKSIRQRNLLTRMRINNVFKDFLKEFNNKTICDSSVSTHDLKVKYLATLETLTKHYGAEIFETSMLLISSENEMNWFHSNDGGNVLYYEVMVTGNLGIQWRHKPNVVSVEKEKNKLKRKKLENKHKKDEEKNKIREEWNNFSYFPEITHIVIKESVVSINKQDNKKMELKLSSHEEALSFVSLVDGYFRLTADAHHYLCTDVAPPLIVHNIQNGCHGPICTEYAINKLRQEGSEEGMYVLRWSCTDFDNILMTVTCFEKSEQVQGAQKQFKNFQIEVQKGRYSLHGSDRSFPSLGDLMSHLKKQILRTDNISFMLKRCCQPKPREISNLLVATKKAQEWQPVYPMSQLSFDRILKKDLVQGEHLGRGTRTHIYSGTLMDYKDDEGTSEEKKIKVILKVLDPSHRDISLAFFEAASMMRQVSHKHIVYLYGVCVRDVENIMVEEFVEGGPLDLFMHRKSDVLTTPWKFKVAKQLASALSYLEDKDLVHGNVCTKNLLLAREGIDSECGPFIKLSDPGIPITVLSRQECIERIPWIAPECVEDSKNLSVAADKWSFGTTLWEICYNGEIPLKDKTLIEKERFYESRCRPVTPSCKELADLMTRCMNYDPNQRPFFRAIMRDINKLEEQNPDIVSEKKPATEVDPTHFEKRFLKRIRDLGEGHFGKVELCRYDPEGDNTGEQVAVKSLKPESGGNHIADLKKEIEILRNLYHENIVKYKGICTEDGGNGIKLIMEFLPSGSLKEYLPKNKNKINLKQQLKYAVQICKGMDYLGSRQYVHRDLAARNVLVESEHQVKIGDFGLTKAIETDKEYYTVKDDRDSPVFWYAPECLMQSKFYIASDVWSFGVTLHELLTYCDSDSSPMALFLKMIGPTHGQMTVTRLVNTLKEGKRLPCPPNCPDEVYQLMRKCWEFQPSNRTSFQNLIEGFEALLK
TYK2, sequence (P29597 whole entry): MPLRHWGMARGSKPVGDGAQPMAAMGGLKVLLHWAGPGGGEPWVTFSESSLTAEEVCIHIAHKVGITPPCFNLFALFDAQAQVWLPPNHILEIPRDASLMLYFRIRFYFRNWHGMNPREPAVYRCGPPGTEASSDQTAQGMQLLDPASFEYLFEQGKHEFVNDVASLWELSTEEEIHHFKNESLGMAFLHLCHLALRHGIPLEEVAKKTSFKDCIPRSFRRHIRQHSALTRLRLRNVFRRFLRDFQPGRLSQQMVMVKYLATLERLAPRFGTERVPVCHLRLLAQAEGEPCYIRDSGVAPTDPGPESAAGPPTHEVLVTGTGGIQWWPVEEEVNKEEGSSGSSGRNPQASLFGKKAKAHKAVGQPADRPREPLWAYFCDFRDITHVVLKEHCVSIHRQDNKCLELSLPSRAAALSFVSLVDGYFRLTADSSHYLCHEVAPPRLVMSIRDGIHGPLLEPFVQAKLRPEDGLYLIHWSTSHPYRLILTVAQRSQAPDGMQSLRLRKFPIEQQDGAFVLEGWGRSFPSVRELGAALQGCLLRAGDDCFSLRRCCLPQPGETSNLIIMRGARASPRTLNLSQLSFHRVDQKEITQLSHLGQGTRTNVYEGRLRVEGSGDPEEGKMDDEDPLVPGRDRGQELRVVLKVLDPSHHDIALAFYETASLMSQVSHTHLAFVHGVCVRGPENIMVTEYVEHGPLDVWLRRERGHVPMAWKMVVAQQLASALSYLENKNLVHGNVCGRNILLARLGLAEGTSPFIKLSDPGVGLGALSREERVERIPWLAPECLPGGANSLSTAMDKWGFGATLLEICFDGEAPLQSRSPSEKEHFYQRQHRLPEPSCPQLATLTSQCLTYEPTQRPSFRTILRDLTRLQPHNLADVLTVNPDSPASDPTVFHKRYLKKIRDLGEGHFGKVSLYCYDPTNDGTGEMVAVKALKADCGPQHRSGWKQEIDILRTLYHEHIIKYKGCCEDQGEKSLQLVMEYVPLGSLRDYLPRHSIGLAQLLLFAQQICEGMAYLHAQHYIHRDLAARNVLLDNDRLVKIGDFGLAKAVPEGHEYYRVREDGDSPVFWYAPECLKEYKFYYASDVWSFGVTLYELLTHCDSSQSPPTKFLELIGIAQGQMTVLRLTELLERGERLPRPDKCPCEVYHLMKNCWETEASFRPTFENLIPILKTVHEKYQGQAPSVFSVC

For `Cc1cnc2nc1Nc1cc(ccc1O)CCNC(=O)c1ccc(cc1)-c1cnc(F)c(c1)N2` [Compound 48, 2^6-fluoro-6^6-hydroxy-4^5-methyl-3,5,9-triaza-4(2,4)-pyrimidina-2(3,5)-pyridina-1-2,(1,4),6(1,3)-dibenzenacyclodecaphan-10-one], the IC50 on JAK1 was in the range of 11 to 100 nM; at JAK3 it was 101 to 1000 nM; on JAK2, 11 to 100 nM; at TYK2 it was 101 to 1000 nM.
